{"source": "patent US7759345B2", "about": "“Antitumoral derivatives of ET-743” (priority 2001, dated 2010)", "key": {"SW620": {"system": "SW620", "experiment": "Inhibition of cells growth by colorimetric assay (SRB), SW620", "assay_type": "cell-based", "summary_of_the_method": "(§1)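 Using sulforhodamine B, cell growth and viability are quantified after a 48 h drug exposure of cells maintained in RPMI 1640/10% FBS at 37 °C, 5% CO2. Concentrations span 10 to 10^−8 μg/ml; optical density is read at 490 nm.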"}, "A-498": {"system": "A-498", "experiment": "Inhibition of cells growth by colorimetric assay (SRB), A-498", "assay_type": "cell-based", "summary_of_the_method": "as §1"}, "tumor cell culture": {"system": "tumor cell culture", "experiment": "Bioassays for antitumor screening, cell line not given", "assay_type": "cell-based", "settings": "cell line not stated", "from_the_text": "Bioassays for Antitumor Screening\nThe finality of these assays is to interrupt the growth of a “in vitro” tumor cell culture by means a continued exhibition of the cells to the sample to be testing."}, "MDA-MB-231": {"system": "MDA-MB-231", "experiment": "Inhibition of cells growth by colorimetric assay (SRB), MDA-MB-231", "assay_type": "cell-based", "summary_of_the_method": "as §1"}, "HT-29": {"system": "HT-29", "experiment": "Inhibition of cells growth by colorimetric assay (SRB), HT-29", "assay_type": "cell-based", "summary_of_the_method": "as §1"}, "A-549": {"system": "A-549", "experiment": "Inhibition of cells growth by colorimetric assay (SRB), A-549", "assay_type": "cell-based", "summary_of_the_method": "as §1"}, "MCF-7": {"system": "MCF-7", "experiment": "Inhibition of cells growth by colorimetric assay (SRB), MCF-7", "assay_type": "cell-based", "summary_of_the_method": "as §1"}, "SK-MEL-28": {"system": "SK-MEL-28", "experiment": "Inhibition of cells growth by colorimetric assay (SRB), SK-MEL-28", "assay_type": "cell-based", "summary_of_the_method": "as §1"}, "DU-145": {"system": "DU-145", "experiment": "Inhibition of cells growth by colorimetric assay (SRB), DU-145", "assay_type": "cell-based", "summary_of_the_method": "as §1"}}}
{"compound": "COc1cc2c(cc1OC(=O)OC(C)(C)C)CCN[C@]21CS[C@@H]2c3c(OC(=O)OC(C)(C)C)c(C)c4c(c3[C@H](COC1=O)N1C2[C@H]2c3c(cc(C)c(OC)c3OC(=O)OC(C)(C)C)C[C@@H]([C@@H]1O)N2C)OCO4", "note": "(stereo partly drawn) [Compound 174]", "values": [{"measurement": "Toxicity Data Heart", "setting": "Heart", "value": "2.76E-08"}, {"measurement": "Toxicity Data Kidney", "setting": "Kidney", "value": "1.24E-08"}, {"measurement": "LC50", "setting": "SW620; Homo sapiens, SW-620, 48 h, read-out: SW-620 LC50", "value": 686, "unit": "nM"}, {"measurement": "GI50", "setting": "SW620; Homo sapiens, SW-620, SRB assay, 48 hours exposure, read-out: SW-620 GI50", "value": 0.98, "unit": "nM"}, {"measurement": "SW-620 TGI", "setting": "SW620; SRB assay, 48 hours exposure", "value": "6.86E-09"}, {"measurement": "LC50", "setting": "A-498; Homo sapiens, A498, 48 h, read-out: A-498 LC50", "value": 9.8, "unit": "nM"}, {"measurement": "GI50", "setting": "A-498; Homo sapiens, A498, SRB assay, 48 hours exposure, read-out: A-498 GI50", "value": 1.96, "unit": "nM"}, {"measurement": "A-498 TGI", "setting": "A-498; SRB assay, 48 hours exposure", "value": "3.92E-09"}, {"measurement": "antitumor activity (in words)", "setting": "tumor cell culture", "value": "very active (E-10)"}, {"measurement": "CC50", "setting": "MDA-MB-231; Homo sapiens, MDA-MB-231, 48 h, read-out: MB-231 LC50", "value": 98, "unit": "nM"}, {"measurement": "GI50", "setting": "MDA-MB-231; Homo sapiens, MDA-MB-231, SRB assay, 48 hours exposure, read-out: MB-231 GI50", "value": 0.98, "unit": "nM"}, {"measurement": "MB-231 TGI", "setting": "MDA-MB-231; SRB assay, 48 hours exposure", "value": "5.88E-09"}, {"measurement": "Toxicity Data Liver", "setting": "Liver", "value": "1.34E-08"}, {"measurement": "GI50", "setting": "HT-29; Homo sapiens, HT-29, 48 h, SRB assay, 48 hours exposure, read-out: HT-29 GI50", "value": 1.96, "unit": "nM"}, {"measurement": "LC50 (concentration for 50% cell killing)", "setting": "HT-29; Homo sapiens, HT-29, 48 h, read-out: HT-29 LC50, SRB assay, 48 hours exposure", "value": 9.8, "unit": "nM"}, {"measurement": "HT-29 TGI", "setting": "HT-29; SRB assay, 48 hours exposure", "value": "6.86E-09"}, {"measurement": "Toxicity Data Skeletal", "setting": "Skeletal", "value": "9.80E-07"}, {"measurement": "GI50", "setting": "A-549; Homo sapiens, A549, 48 h, SRB assay, 48 hours exposure, read-out: A-549 GI50", "value": 0.98, "unit": "nM"}, {"measurement": "LC50 (concentration for 50% cell killing)", "setting": "A-549; Homo sapiens, A549, 48 h, read-out: A-549 LC50, SRB assay, 48 hours exposure", "value": 9.8, "unit": "nM"}, {"measurement": "A-549 TGI", "setting": "A-549; SRB assay, 48 hours exposure", "value": "2.94E-09"}, {"measurement": "GI50", "setting": "MCF-7; Homo sapiens, MCF7, 48 h, read-out: MCF GI50", "value": 3.92, "unit": "nM"}, {"measurement": "CC50", "setting": "MCF-7; Homo sapiens, MCF7, 48 h, read-out: MCF LC50", "value": 88.2, "unit": "nM"}, {"measurement": "MCF TGI", "setting": "MCF-7; SRB assay, 48 hours exposure", "value": "1.96E-08"}, {"measurement": "GI50", "setting": "SK-MEL-28; Homo sapiens, SK-MEL-28, 48 h, SRB assay, 48 hours exposure, read-out: MEL-28 GI50", "value": 1.96, "unit": "nM"}, {"measurement": "CC50", "setting": "SK-MEL-28; Homo sapiens, SK-MEL-28, 48 h, read-out: MEL-28 LC50, SRB assay, 48 hours exposure", "value": 9.8, "unit": "nM"}, {"measurement": "MEL-28 TGI", "setting": "SK-MEL-28; SRB assay, 48 hours exposure", "value": "4.90E-09"}, {"measurement": "Toxicity Data Myelo", "setting": "Myelo", "value": "7.27E-08"}, {"measurement": "GI50", "setting": "DU-145; Homo sapiens, DU-145, 48 h, SRB assay, 48 hours exposure, read-out: DU-145 GI50", "value": 0.294, "unit": "nM"}, {"measurement": "CC50", "setting": "DU-145; Homo sapiens, DU-145, 48 h, read-out: DU-145 LC50, SRB assay, 48 hours exposure", "value": 3.92, "unit": "nM"}, {"measurement": "DU-145 TGI", "setting": "DU-145; SRB assay, 48 hours exposure", "value": "9.80E-10"}]}
